# Values quoted from earlier work as cited in patent publication US8571804B2, “Disease treatment by predicting drug association” (Pharnext, priority 2007, dated 2013).
# How the values were obtained:
# [1] = test system: PMP22-transgenic CMT1A rat model
structure (smiles),measurement,setting,value
O=C1O[C@H]([C@@H](O)CO)C(O)=C1O [ascorbic acid],clinical features,CMT animal models,improve clinical features
CN(C)c1ccc([C@H]2C[C@]3(C)[C@@H](CC[C@]3(O)CCCO)[C@@H]3CCC4=CC(=O)CCC4=C32)cc1 [onapristone],clinical symptoms,[1]; compared with placebo-treated controls,significantly improved clinical symptoms
same,expression of PMP22 protein,"[1]; transgenic rodents, antiprogestin treatment",decreased expression of PMP22 protein
